Experimental data reported in US8785452B2, “Anti-infective compounds” (priority 2008, dated 2014).
In brackets after ≈: the same amount, converted by molar mass. Like-named read-outs stand apart in the source and are kept apart here.

Legend:
M. tuberculosis H37Rv [1] = assay: Conventional CFU determination in infected macrophages; format: cell-based, Mycobacterium tuberculosis
BJ-Skin = assay: Cytotoxicity assay (resazurin); format: cell-based; conditions: 5 days
Procedure: (§1) In order to address compound toxicity, seven cell lines originating from different body tissues were cultivated in the presence of 3-fold dilutions of compounds starting from 100 μM. After 5 days of culture, cell viability was assessed by the resazurin test. Briefly, cells were incubated with 10 μg/mL of resazurin (Sigma-Aldrich St. Louis, Mo.) for 4 h at 37° C. under 5% CO2. Resofurin fluorescence (RFU) was measured as indicated above. Percentage of toxicity on cells was calculated as follows: Cytotoxicity (%)=(RFUDMSO−RFUBlank)−(RFUcompound−RFUblank)/(RFUDMSO−RFUBlank)×100. Percentage of cytotoxicity was plotted against compound concentration and the minimal toxic concentration (MTC50) was determined by non-linear regression analysis as the lowest compound concentration where fifty percent toxicity was observed on the corresponding cell line.

HEK293-Kidney = assay: Cytotoxicity assay (resazurin); format: cell-based; conditions: 5 days
Procedure: as §1

HepG2-Hepatocytes = assay: Cytotoxicity assay (resazurin); format: cell-based; conditions: 5 days
Procedure: as §1

MRC5-Lung = assay: Cytotoxicity assay (resazurin); format: cell-based; conditions: 5 days
Procedure: as §1

SK-N-SH-Brain = assay: Cytotoxicity assay (resazurin); format: cell-based; conditions: 5 days
Procedure: as §1

[2] = test system: M. tuberculosis clinical isolates; format: cell-based, Mycobacterium tuberculosis
M. tuberculosis H37Rv [3] = assay: MIC, in vitro bacterial growth assay; format: cell-based; conditions: Mycobacterium tuberculosis
M. tuberculosis H37Ra = assay: MIC, in vitro bacterial growth assay; format: cell-based; conditions: Mycobacterium tuberculosis
[4] = test system: M. tuberculosis Beijing 1237; assay: MIC, in vitro bacterial growth assay; format: cell-based; conditions: Mycobacterium tuberculosis, BEIJING1237; laboratory strain Beijing 1237
M. bovis BCG Tokyo = assay: microbe, parasite or virus in culture; format: cell-based; conditions: Mycobacterium tuberculosis variant bovis BCG
M. bovis BCG Pasteur = assay: microbe, parasite or virus in culture; format: cell-based; conditions: Mycobacterium tuberculosis variant bovis BCG
M. smegmatis mc^2 155 = assay: MIC, in vitro bacterial growth assay; format: cell-based, Mycobacterium smegmatis; conditions: for MIC: Mycolicibacterium smegmatis, MC^2155
Antimicrobial spectrum [5] = format: cell-based; conditions: Gram-negative panel
Antimicrobial spectrum [6] = format: cell-based; conditions: Gram-positive panel
C. striatum = assay: Antimicrobial spectrum; format: cell-based, Corynebacterium; conditions: for MIC: Corynebacterium C. striatum
C. jeikeium = assay: Antimicrobial spectrum; format: cell-based, Corynebacterium; conditions: for MIC: Corynebacterium C. jeikeium
[7] = test system: Fungi: Candida albicans, C. glabrata, C. parapsilosis; assay: Antimicrobial spectrum; format: cell-based; conditions: Candida panel
[8] = test system: panel of cell lines derived from different body tissue; assay: Cytotoxicity assay (resazurin), whole panel; conditions: 5 days co-incubation, 133 up to 100 μM
Jurkat-T-cell = assay: Cytotoxicity assay (resazurin); format: cell-based; conditions: 5 days
Procedure: as §1

THP-1-Monocytes = assay: Cytotoxicity assay (resazurin); format: cell-based; conditions: 5 days
Procedure: as §1

BCG Pasteur-Tokyo = assay: microbe, parasite or virus in culture; format: cell-based; conditions: Mycobacterium tuberculosis variant bovis BCG
[9] = test system: Gram-negative: Acinetobacter baumannii, Escherichia coli, Enterobacter cloacae, E. aerogenes, Klebsiella oxytoca, Pseudomonas aeruginosa, Salmonella enteridis …; assay: Antimicrobial spectrum; format: cell-based; conditions: Gram-negative panel, clinical isolates from CHU d'Angers
[10] = test system: Gram-positive: Staphylococcus aureus, S. epidermis, S. capitis, S. xylosus, Micrococcus luteus, Listeria innocua, Lactobacillus gallinarum, group G …; assay: Antimicrobial spectrum; format: cell-based; conditions: Gram-positive panel, clinical isolates from CHU d'Angers
in vitro = conditions: human
Primary BMDM = assay: Cytotoxicity assay (resazurin); conditions: 5 days
[11] = test system: Primary human macrophages; assay: Cytotoxicity assay (resazurin); conditions: 5 days
[12] = compounds 5 μM, Raw264.7, mouse bone marrow-derived macrophages, human primary macrophages, five days after infection
[13] = laboratory strain H37Rv, read-out: MIC
[14] = laboratory strain H37Ra, read-out: MIC

Structure (SMILES) | decrease in the number of CFUs (M. tuberculosis H37Rv [1]; [12]) | Range of MTC50 (BJ-Skin) [µM] | Range of MTC50 (HEK293-Kidney) [µM] | Range of MTC50 (HepG2-Hepatocytes) [µM] | Range of MTC50 (MRC5-Lung) [µM] | Range of MTC50 (SK-N-SH-Brain) [µM] | Range of MICs for multiple strains ([2]; Drug Sensitive, Tissue) [µM] | Range of MICs for multiple strains ([2]; INH^R RIF^R Strep^R, Sputum) [µM] | Range of MICs for multiple strains ([2]; INH^R RIF^R Strep^R, Tissue) [µM] | Range of MICs for multiple strains ([2]; MDR, Sputum) [µM] | Range of MICs for multiple strains ([2]; MDR, Tissue) [µM] | Range of MICs for multiple strains ([2]; RIF^R, Sputum) [µM] | Range of MICs for multiple strains ([2]; RIF^R, Tissue) [µM] | Range of MICs for multiple strains ([2]; XDR, Sputum) [µM] | Range of MICs for multiple strains ([2]; XDR, Tissue) [µM] | MIC (M. tuberculosis H37Rv [3]; [13]) [µM] | MIC (M. tuberculosis H37Ra; [14]) [µM] | MIC [4] [µM] | MIC (M. bovis BCG Pasteur) [µM] | cytotoxicity against the panel of cell lines [8] | further results
COc1ccc(OCCNC(=O)c2cc([N+](=O)[O-])cc([N+](=O)[O-])c2)cc1 [compound 4, N-(2-(4-Methoxyphenoxy)ethyl)-3,5-dinitrobenzamide] | ten-fold decrease | >100 | >100 | >100 | >100 | >100 | 0.38 | 0.1 | 0.05 to 0.1 | 0.05 to 0.1 | 0.05 to 0.1 | 0.05 | 0.02 to 0.05 | 0.02 to 0.05 | 0.05 to 0.1 | 0.6 (≈ 0.217 µg/mL) | 1.2 (≈ 0.434 µg/mL) | 0.3 (≈ 0.108 µg/mL) | 1.2 (≈ 0.434 µg/mL) | no cytotoxicity | MIC (M. bovis BCG Tokyo): 1.2 µM (≈ 0.434 µg/mL); MIC (M. smegmatis mc^2 155): 1.2 µM (≈ 0.434 µg/mL); MIC (Antimicrobial spectrum [5]): > 250 µM; MIC (Antimicrobial spectrum [6]): > 250 µM; MIC (C. striatum): 27 µM (≈ 9.76 µg/mL); MIC (C. jeikeium): 2.7 µM (≈ 0.976 µg/mL); MIC [7]: > 250 µM
Cc1cccn2c(=O)c(C=O)c(Nc3cccc(Cl)c3)nc12 [compound 133, 2-(3-Chlorophenylamino)-9-methyl-4-oxo-4H-pyrido[1,2-a]pyrimidine-3-carbaldehyde] |  | >100 | >100 | >100 | >100 | >100 | 2.5 to 5 | 0.3 to 1.2 | 1.2 | 0.3 to 1.2 | 1.2 | 2.5 | 1.2 | 0.6 to 2.5 | 0.3 to 5 |  |  |  | 2 (≈ 0.627 µg/mL) | no cytotoxicity | decrease in the number of CFUs (M. tuberculosis H37Rv [1]; human and mouse cells, seven days after infection, 232 at 20 μM): ten-fold decrease; Range of MTC50 (Jurkat-T-cell): >100 µM; Range of MTC50 (THP-1-Monocytes): >100 µM; MIC (M. tuberculosis H37Rv [3]; H37RV): 2 µM (≈ 0.627 µg/mL); MIC (M. tuberculosis H37Ra; H37RA): 2 µM (≈ 0.627 µg/mL); MIC (BCG Pasteur-Tokyo): 2 µM (≈ 0.627 µg/mL); MIC (M. smegmatis mc^2 155; mc^2 155, read-out: MIC): > 100 µM; MIC (μM) (M. smegmatis mc^2 155; mc^2 155): no effect; antimicrobial effect [9]: NE (NE: No effect up to 100 μg/mL equivalent to 320 μM); antimicrobial effect [10]: NE (NE: No effect up to 100 μg/mL equivalent to 320 μM); antimicrobial effect (C. striatum; C. striatum, clinical isolates from CHU d'Angers): NE (NE: No effect up to 100 μg/mL equivalent to 320 μM); antimicrobial effect (C. jeikeium; C. jeikeium, clinical isolates from CHU d'Angers): NE (NE: No effect up to 100 μg/mL equivalent to 320 μM); antimicrobial effect ([7]; clinical isolates from CHU d'Angers): NE (NE: No effect up to 100 μg/mL equivalent to 320 μM); selectivity ratio (in vitro): > 50; Range of MTC50 (Primary BMDM): >100 µM; Range of MTC50 [11]: >100 µM
O=C(NCCOCc1ccccc1)c1cc([N+](=O)[O-])cc([N+](=O)[O-])c1 [compound 24, N-(2-(Benzyloxy)ethyl)-3,5-dinitrobenzamide] | ten-fold decrease | >100 | >100 | >100 | >100 | >100 | 0.31 | 0.08 | 0.04 to 0.08 | 0.04 to 0.08 | 0.04 to 0.08 | 0.08 | 0.08 | 0.04 to 0.08 | 0.08 | 0.6 (≈ 0.207 µg/mL) | 1.3 (≈ 0.449 µg/mL) | 0.1 (≈ 0.0345 µg/mL) | 1.2 (≈ 0.414 µg/mL) | no cytotoxicity | MIC (M. bovis BCG Tokyo): 0.6 µM (≈ 0.207 µg/mL); MIC (M. smegmatis mc^2 155): 0.6 µM (≈ 0.207 µg/mL); MIC (Antimicrobial spectrum [5]): > 250 µM; MIC (Antimicrobial spectrum [6]): > 250 µM; MIC (C. striatum): 27 µM (≈ 9.32 µg/mL); MIC (C. jeikeium): 2.7 µM (≈ 0.932 µg/mL); MIC [7]: > 250 µM
